PMC8125337 (International Journal of Molecular Sciences, 2021)

Biological target: T1, TRPV1 (vanilloid receptor)
T1 construct: native receptor in hemocytes
Assay: radioligand saturation binding, rapid filtration
Assay type: cell-based, Mytilus galloprovincialis

C=C(C)[C@]12C[C@@H](C)[C@@]34O[C@](Cc5ccccc5)(O[C@@H]1[C@@H]3C=C(COC(=O)Cc1ccc(O)c(OC)c1)C[C@]1(O)C(=O)C(C)=C[C@@H]41)O2 [resiniferatoxin]
Kd: 0.413 ± 0.168 nM
